Values of other authors as cited in patent publication US7718642B2, “AIDS prophylactic lubricating composition” (priority 1993, dated 2010).

Tests used:
HIV [1] = details: used as contraceptive during sexual relations; J. Kreiss et al, JAMA 1992
sperm cells = details: diffusion into cervical mucous
HIV [2] = tested on: HIV
[3] = in vivo
[4] = previous studies (Int J STD & AIDS); read-out: CC50 value (50% toxic dose)

Compound | Prevention of HIV transmission (HIV [1]) | Concentration that restricts penetration of sperm cells and causes loss of mobility (sperm cells) | selectivity value (HIV [2]; CC50/IC50, previous studies (Int J STD & AIDS)) | IC50 (HIV [2]; previous studies (Int J STD & AIDS), read-out: IC50 value (50% inhibitory dose)) | Undesirable side effects [3] | Concentration that effectively destroys the envelope of viruses (viruses) | CC50 [4]
nonoxynol-9 | did not prevent HIV transmission |  |  |  |  |  | 
[H]/N=C(\N/C(=N/[H])NCCCCCCNC(=N)NC(=N)Nc1ccc(Cl)cc1)Nc1ccc(Cl)cc1 [chlorhexidine] |  | above 0.1% | 5.2 | 250 nM | does not produce any undesirable side effects | above 0.1% | 1300 nM
